{"source": "patent US20130324413A1", "about": "“METHOD FOR PROMOTING PLANT GROWTH” (SUMITOMO CHEMICAL COMPANY, LIMITED, priority 2011, published 2013)", "assay_type_in_all_cases": "in vivo", "key": {"[1]": {"tested_on": "Corn (cultivar: PIONEER 31N27)", "test": "Test Example 8: corn seedling spraying, low-temperature stress, fresh weight of above-ground part", "conditions": "for Average fresh weight of above-ground part: low-temperature stress 2±2° C. 5 days, non-treated 0.79 g", "experimental": "Corn seeds (cultivar: PIONEER 31N27) were sown in the culture soil (AISAI) in plastic pots (55 mm in diameter×58 mm in height) and grown for a week under the following conditions to obtain corn seedlings: temperature, 20 to 25° C.; humidity, 50 to 75%; illuminance, about 5,000 lux; day length, 16 hours.\nA flowable formulation of the compound (1b) was obtained by adding 120 mg of a mixture of white carbon and a polyoxyethylene alkyl ether sulfate ammonium salt (weight ratio of 1:1) and 300 μl of water to 0.5 mg of compound (1b), followed by fine grinding by a wet grinding method. This flowable formulation was diluted with 50 ml of water, to which RINO (manufactured by NIHON NOHYAKU) was added as a sticker to 5,000-fold dilution, whereby a spray solution was obtained. A sufficient amount of the spray solution was applied to the corn seedlings by using an automatic spraying machine. As a control, a flowable formulation without compound (1b) was prepared and then sprayed to the non-treated group.\nSubsequently, the corn seedlings treated with the spray solution were placed in a phytotron under the following conditions in order to expose the plants to low-temperature stress for 5 days. • Conditions: “temperature, 2±2° C.; lighting hour, 16 hours; • illuminance, about 5,000 lux; humidity, 35 to 80%”\nThe plants were then grown for another 4 days under the following conditions: temperature, 25 to 28° C.; humidity, 50 to 75%, illuminance, about 5,000 lux; day length, 16 hours. Then the fresh weight of the above-ground part of the plants was measured. The experiment was performed in four replications for each treatment condition and the average weight per individual was calculated."}, "[2]": {"tested_on": "corn plants (cultivar: Koshu)", "test": "Test Example 9: corn seed soaking, low-temperature stress, fresh weight of above-ground part", "conditions": "for Average fresh weight of above-ground part: low-temperature stress 3±2° C. 7 days, non-treated 1.18 g", "experimental": "Each of the 1,000-fold concentrated dimethylsulfoxide (DMSO) solutions of compound (1b) was 1,000-fold diluted with water to prepare a soultion of compound (1b) at the test concentration. The solution was dispensed in 30 ml aliquots into […] Petri dishes, in which seeds of corn plants (cultivar: Koshu) were soaked and incubated for 16 hours at 24° C. in the dark. The corn seeds were sown in the culture soil (AISAI) in the plastic pots (55 mm in diameter×58 mm in height), and corn seedlings were grown for 4 days under the following conditions: temperature, 27° C.; illuminance, about 5,000 lux; day length, 16 hours. As a control, a 0.1% aqueous DMSO solution was prepared, and seeds were soaked in this solution and then sown and grown into seedlings in the same way as described above. This group was used as the non-treated group. The corn seedlings were placed in a phytotron under the following conditions in order to expose the plants to low-temperature stress for 7 days. • Conditions: “temperature, 3±2° C.; day length, 16 hours; • illuminance, about 5,000 lux; humidity, 35 to 80%” The plants were then grown for another 7 days under the following conditions: temperature, 27° C.; humidity, 50 to 75%, illuminance, about 5,000 lux; day length, 16 hours. Then the fresh weight of the above-ground part of the plants was measured. The experiment was performed in four replications for each individual plant for each treatment condition and the average weight per individual was calculated."}, "[3]": {"tested_on": "corn seeds (cultivar: Kuromochi)", "test": "Test Example 6: corn seed coating, low-temperature stress, fresh weight of above-ground part", "conditions": "for Average fresh weight of above-ground part: low-temperature stress 3±2° C. 7 days, non-treated 1.18 g", "experimental": "A blank slurry solution containing 5% (V/V) color coat red (Becker Underwood, Inc.), 5% (V/V) CF-Clear (Becker Underwood, Inc.) and 0.4% Maxim XL (Syngenta) was prepared. […] In a 50-ml centrifuge tube (manufactured by BD Japan), 0.48 ml of the slurry solution was placed for each 20 g of corn seeds (cultivar: Kuromochi) and stirred until the solution was dried, thereby coating the seeds. As a control, seeds were coated with the blank slurry solution and used for a non-treated group. Two treated corn seeds were sown in the culture soil (AISAI) in each plastic pot (55 mm in diameter×58 mm in height) and grown for 4 days under the following conditions: temperature, 27° C.; illuminance, 5,000 lux; day length, 16 hours. These were subjected to the test. The pots at day 4 after the sowing were placed in a phytotron under the following conditions in order to expose the plants to low-temperature stress for 7 days. Conditions: “temperature, 3±2° C.; day length, 16 hours; illuminance, about 5,000 lux; humidity, 35 to 80%” The plants were grown for another 7 days under the following conditions: temperature, 27° C.; humidity, 50 to 75%, illuminance, about 5,000 lux; day length, 16 hours. Then the fresh weight of the above-ground part of the plants was measured. The experiment was performed in four replications for each treatment condition and the average weight per individual was calculated."}, "[4]": {"tested_on": "corn plants (cultivar: Koshu)", "test": "Test Example 3: corn seed soaking, fresh weight of above-ground part", "experimental": "Each of the 1,000-fold concentrated dimethylsulfoxide (DMSO) solutions of compound (1b) was 1,000-fold diluted with water to prepare a soultion of compound (1b) at the test concentration. The solution was dispensed in 30 ml aliquots into […] Petri dishes, in which seeds of corn plants (cultivar: Koshu) were soaked and incubated for 16 hours at 24° C. in the dark. The corn seeds (cultivar: Koshu) were sown in the culture soil (AISAI) in the plastic pots (55 mm in diameter×58 mm in height), and corn seedlings were grown for 18 days under the following, conditions: temperature, 27° C.; illuminance, about 5,000 lux; day length, 16 hours. As a control, a 0.1% aqueous DMSO solution was prepared, and seeds were soaked in this solution and then sown and grown into seedlings in the same way as described above. This group was used as the non-treated group. The fresh weight of the above-ground part of the corn seedlings obtained above was measured. The experiment was performed in four replications for each individual plant at each treatment concentration and the average weight per individual was calculated."}}}
{"smiles": "CNC(=O)C(OC)c1ccccc1COc1cc(C)ccc1C", "note": "(racemic) [Compound (1b), N-methyl-2-[2-(2,5-dimethylphenoxy)methyl]phenyl-2-methoxyacetamide]", "values": [{"measurement": "fresh weight of the above-ground part as compared with the non-treated group", "setting": "[1]; plants exposed to low-temperature stress, concentration range of 10 ppm to 100 ppm", "result": "increased"}, {"measurement": "Average fresh weight of above-ground part", "setting": "[1]; spray 10 ppm", "result": 0.89, "unit": "g"}, {"measurement": "Average fresh weight of above-ground part", "setting": "[1]; spray 30 ppm", "result": 0.94, "unit": "g"}, {"measurement": "Average fresh weight of above-ground part", "setting": "[1]; spray 100 ppm", "result": 0.90, "unit": "g"}, {"measurement": "fresh weight of the above-ground part as compared with the non-treated group", "setting": "[2]; plants exposed to low-temperature stress, concentration range of 3 ppm to 30 ppm", "result": "increased"}, {"measurement": "Average fresh weight of above-ground part", "setting": "[2]; seed soaking 3 ppm", "result": 1.49, "unit": "g"}, {"measurement": "Average fresh weight of above-ground part", "setting": "[2]; seed soaking 10 ppm", "result": 2.25, "unit": "g"}, {"measurement": "Average fresh weight of above-ground part", "setting": "[2]; seed soaking 30 ppm", "result": 1.35, "unit": "g"}, {"measurement": "Average fresh weight of above-ground part", "setting": "[3]; seed coating 10 g", "result": 1.33, "unit": "g"}, {"measurement": "Average fresh weight of above-ground part", "setting": "[3]; seed coating 25 g", "result": 1.30, "unit": "g"}, {"measurement": "Average fresh weight of above-ground part", "setting": "[3]; seed coating 50 g", "result": 1.29, "unit": "g"}, {"measurement": "Average fresh weight of above-ground part", "setting": "[3]; seed coating", "result": 1.34, "unit": "g"}, {"measurement": "fresh weight of the above-ground part as compared with the control group", "setting": "[3]; plants exposed to low-temperature stress, 10 g to 50 g per 100 kg of seeds", "result": "an increase"}, {"measurement": "fresh weight of the above-ground part as compared with the non-treated group", "setting": "[4]; concentration of 3 ppm", "result": "increased"}, {"measurement": "Average fresh weight of above-ground part", "setting": "[4]; seed soaking 3 ppm, 16 hours, grown 18 days, non-treated 4.47 g", "result": 6.60, "unit": "g"}]}
